Patent publication US11229618B2 (Amarin Pharmaceuticals Ireland Limited, priority 2012, dated 2022)

Assay: ANCHOR: RBC fatty acid concentrations, ratios and class proportions (GC/FID)
Type: in vivo, human
Set-up: DHA RBC End-of-treatment / DHA RBC Change from baseline / DPAn-3 RBC End-of-treatment / DPAn-3 RBC Change from baseline / AA RBC End-of-treatment / AA RBC Change from baseline / Stearic RBC End-of-treatment / Stearic RBC Change from baseline / Oleic RBC End-of-treatment / Oleic RBC Change from baseline / Linoleic RBC End-of-treatment / Linoleic RBC Change from baseline: unit not given here
Conditions: for AA RBC Placebo-adjusted percent change from baseline / DHA RBC Placebo-adjusted percent change from baseline / DPAn-3 RBC Placebo-adjusted percent change from baseline / Linoleic RBC Placebo-adjusted percent change from baseline / Oleic RBC Placebo-adjusted percent change from baseline / Palmitic RBC Placebo-adjusted percent change from baseline / Ratio of AA/EPA RBC Placebo-adjusted percent change from baseline / Ratio of total ω-3/total ω-6 RBC Placebo-adjusted percent change from baseline / Stearic RBC Placebo-adjusted percent change from baseline: week 12, LS mean; for Monounsaturated, proportion of total fatty acids, RBCs, Change from baseline / Saturated, proportion of total fatty acids, RBCs, Change from baseline / Total ω-3, proportion of total fatty acids, RBCs, Change from baseline / Total ω-6, proportion of total fatty acids, RBCs, Change from baseline: LS mean (SE); for AA RBC End-of-treatment / DHA RBC End-of-treatment / DPAn-3 RBC End-of-treatment / Linoleic RBC End-of-treatment / Oleic RBC End-of-treatment / Palmitic RBC End-of-treatment / Ratio of AA/EPA RBC End-of-treatment / Ratio of total ω-3/total ω-6 RBC End-of-treatment / Stearic RBC End-of-treatment: week 12, mean; for Monounsaturated, proportion of total fatty acids, RBCs, End-of-treatment / Saturated, proportion of total fatty acids, RBCs, End-of-treatment / Total ω-3, proportion of total fatty acids, RBCs, End-of-treatment / Total ω-6, proportion of total fatty acids, RBCs, End-of-treatment: week 12, mean (SD)
Protocol: A multi-center, placebo-controlled, randomized, double-blind, 12-week study was performed to evaluate the efficacy and safety of >96% E-EPA in patients with fasting triglyceride levels≥200 mg/dl and <500 mg/dl despite statin therapy (the mean of two qualifying entry values needed to be ≥185 mg/dl and at least one of the values needed to be ≥200 mg/dl). The primary objective of the study was to determine the efficacy of >96% E-EPA 2 g daily and 4 g daily, compared to placebo, in lowering fasting TG levels in patients with high risk for cardiovascular disease and with fasting TG levels≥200 mg/dL and <500 mg/dL, despite treatment to LDL-C goal on statin therapy.
During the double-blind treatment period, patients were to take 2 capsules (>96% E-EPA or matching placebo) in the morning and 2 capsules in the evening for a total of 4 capsules per day. • Patients in the >96% E-EPA 2 g/day treatment group received 1>96% E-EPA 1 g capsule and 1 matching placebo capsule in the morning and in the evening. • Patients in the >96% E-EPA 4 g/day treatment group received 2>96% E-EPA 1 g capsules in the morning and evening. • Patients in the placebo group received 2 matching placebo capsules in the morning and evening.
Lipids were extracted from plasma and red blood cell (“RBC”) suspensions and converted into fatty acid methyl esters for analysis using a standard validated gas chromatography/flame ionization detection method. Fatty acid parameters were compared between EPA treatment groups and placebo using an ANCOVA model with treatment, gender, type of statin therapy, and presence of diabetes as factors, and the baseline parameter value as a covariate. LSMs, SEs, and 2-tailed 95% confidence intervals for each treatment group and for each comparison were determined.
The monounsaturated fatty acid group included myristoleic, palmitoleic, cis-vaccenic, oleic, gondoic/gadoleic, erucic and nervonic acids. The saturated fatty acid group included myristic, palmitic, stearic, arachidic, behenic and lignoceric acids. The “total ω-3” group included α-linolenic, stearidonic, eicosatrienoic, ω-3 arachidonic, eicosapentaenoic, ω-3 docosapentaenoic and docosahecaenoic acids. The “total ω-6” group included linoleic, γ-linolenic, eicosadienoic, dihomo-γ-linolenic, ω-6 arachidonic, adrenic, and ω-6 docosapentaenoic acids. The “total fatty acid” group represented the sum of the monounsaturated, saturated, total ω-3 and total ω-6 groups.

[1] = 2 g/day, baseline to week 12, LS mean (SE)
[2] = 4 g/day, baseline to week 12, LS mean

## CC/C=C\C/C=C\C/C=C\C/C=C\C/C=C\CCCC(=O)OCC [IPE, all-cis eicosa-5,8,11,14,17-pentaenoic acid ethyl ester]
2 g/day vs placebo
  Monounsaturated, proportion of total fatty acids, RBCs, Placebo-adjusted percent change from baseline: −0.7%
  Saturated, proportion of total fatty acids, RBCs, Placebo-adjusted percent change from baseline: 1.3%
  Total ω-3, proportion of total fatty acids, RBCs, Placebo-adjusted percent change from baseline: 50.0%
  Total ω-6, proportion of total fatty acids, RBCs, Placebo-adjusted percent change from baseline: −11.3%
  AA RBC Placebo-adjusted percent change from baseline: −11.6%
  DHA RBC Placebo-adjusted percent change from baseline: −5.4%
  DPAn-3 RBC Placebo-adjusted percent change from baseline: 74.9%
  Linoleic RBC Placebo-adjusted percent change from baseline: −2.1%
  Oleic RBC Placebo-adjusted percent change from baseline: 1.6%
  Palmitic RBC Placebo-adjusted percent change from baseline: 0.5%
  Ratio of AA/EPA RBC Placebo-adjusted percent change from baseline: −87.1%
  Ratio of total ω-3/total ω-6 RBC Placebo-adjusted percent change from baseline: 60.4%
  Stearic RBC Placebo-adjusted percent change from baseline: 1.6%
2 g/day
  Monounsaturated, proportion of total fatty acids, RBCs, Change from baseline: −0.1 (0.2) mol %
  Saturated, proportion of total fatty acids, RBCs, Change from baseline: −0.3 (0.3) mol %
  Total ω-3, proportion of total fatty acids, RBCs, Change from baseline: 2.6 (0.2) mol %
  Total ω-6, proportion of total fatty acids, RBCs, Change from baseline: −2.4 (0.4) mol %
  AA RBC End-of-treatment: 173.0
  DHA RBC End-of-treatment: 44.7
  DPAn-3 RBC End-of-treatment: 52.2
  Linoleic RBC End-of-treatment: 153.1
  Oleic RBC End-of-treatment: 204.7
  Palmitic RBC End-of-treatment: 321.1
  Ratio of AA/EPA RBC End-of-treatment: 6.4
  Ratio of total ω-3/total ω-6 RBC End-of-treatment: 0.3
  Stearic RBC End-of-treatment: 178.7
  Monounsaturated, proportion of total fatty acids, RBCs, End-of-treatment: 19.9 (1.1) mol %
  Saturated, proportion of total fatty acids, RBCs, End-of-treatment: 43.5 (2.1) mol %
  Total ω-3, proportion of total fatty acids, RBCs, End-of-treatment: 8.5 (1.5) mol %
  Total ω-6, proportion of total fatty acids, RBCs, End-of-treatment: 28.1 (2.1) mol %
[1]
  AA RBC Change from baseline: −20.0 (3.3)
  DHA RBC Change from baseline: −5.5 (0.9)
  DPAn-3 RBC Change from baseline: 21.2 (1.3)
  Linoleic RBC Change from baseline: −1.3 (3.5)
  Oleic RBC Change from baseline: 3.1 (2.8)
  Palmitic RBC Change from baseline: 4.9 (4.1)
  Ratio of AA/EPA RBC Change from baseline: −21.9 (0.8)
  Ratio of total ω-3/total ω-6 RBC Change from baseline: 0.1 (0.01)
  Stearic RBC Change from baseline: 3.9 (2.3)
4 g/day vs placebo
  Monounsaturated, proportion of total fatty acids, RBCs, Placebo-adjusted percent change from baseline: −2.7%
  Saturated, proportion of total fatty acids, RBCs, Placebo-adjusted percent change from baseline: 3.2%
  Total ω-3, proportion of total fatty acids, RBCs, Placebo-adjusted percent change from baseline: 89.1%
  Total ω-6, proportion of total fatty acids, RBCs, Placebo-adjusted percent change from baseline: −19.7%
  AA RBC Placebo-adjusted percent change from baseline: −20.3%
  DHA RBC Placebo-adjusted percent change from baseline: −6.6%
  DPAn-3 RBC Placebo-adjusted percent change from baseline: 122.4%
  Linoleic RBC Placebo-adjusted percent change from baseline: −11.1%
  Oleic RBC Placebo-adjusted percent change from baseline: −3.7%
  Palmitic RBC Placebo-adjusted percent change from baseline: −2.7%
  Ratio of AA/EPA RBC Placebo-adjusted percent change from baseline: −98.5%
  Ratio of total ω-3/total ω-6 RBC Placebo-adjusted percent change from baseline: 123.0%
  Stearic RBC Placebo-adjusted percent change from baseline: −1.3%
4 g/day
  Monounsaturated, proportion of total fatty acids, RBCs, Change from baseline: −0.5 (0.2) mol %
  Saturated, proportion of total fatty acids, RBCs, Change from baseline: 0.5 (0.3) mol %
  Total ω-3, proportion of total fatty acids, RBCs, Change from baseline: 4.9 (0.2) mol %
  Total ω-6, proportion of total fatty acids, RBCs, Change from baseline: −4.9 (0.4) mol %
  AA RBC End-of-treatment: 153.1
  DHA RBC End-of-treatment: 39.0
  DPAn-3 RBC End-of-treatment: 61.9
  Linoleic RBC End-of-treatment: 132.7
  Oleic RBC End-of-treatment: 188.8
  Palmitic RBC End-of-treatment: 301.2
  Ratio of AA/EPA RBC End-of-treatment: 3.6
  Ratio of total ω-3/total ω-6 RBC End-of-treatment: 0.4
  Stearic RBC End-of-treatment: 170.5
  Monounsaturated, proportion of total fatty acids, RBCs, End-of-treatment: 19.8 (1.7) mol %
  Saturated, proportion of total fatty acids, RBCs, End-of-treatment: 44.2 (3.0) mol %
  Total ω-3, proportion of total fatty acids, RBCs, End-of-treatment: 10.2 (2.5) mol %
  Total ω-6, proportion of total fatty acids, RBCs, End-of-treatment: 25.8 (3.2) mol %
[2]
  AA RBC Change from baseline: −37.5
  DHA RBC Change from baseline: −6.4
  DPAn-3 RBC Change from baseline: 33.6
  Linoleic RBC Change from baseline: −16.1
  Oleic RBC Change from baseline: −8.0
  Palmitic RBC Change from baseline: −6.3
  Ratio of total ω-3/total ω-6 RBC Change from baseline: 0.2
  Stearic RBC Change from baseline: −1.4
